Test results taken from ChEMBL document CHEMBL2074006, “Induction of ABCC3 (MRP3) by pregnane X receptor activators” (Drug Metab Dispos, 2003).

Molecular target: ATP-binding cassette sub-family C member 2 (Mus musculus, UniProt Q8VI47)
Assay: (§1) TP_TRANSPORTER: quantitative PCR in vivo, liver of mouse
Format: functional, organism-based

Sequence of ATP-binding cassette sub-family C member 2 (Q8VI47 whole entry): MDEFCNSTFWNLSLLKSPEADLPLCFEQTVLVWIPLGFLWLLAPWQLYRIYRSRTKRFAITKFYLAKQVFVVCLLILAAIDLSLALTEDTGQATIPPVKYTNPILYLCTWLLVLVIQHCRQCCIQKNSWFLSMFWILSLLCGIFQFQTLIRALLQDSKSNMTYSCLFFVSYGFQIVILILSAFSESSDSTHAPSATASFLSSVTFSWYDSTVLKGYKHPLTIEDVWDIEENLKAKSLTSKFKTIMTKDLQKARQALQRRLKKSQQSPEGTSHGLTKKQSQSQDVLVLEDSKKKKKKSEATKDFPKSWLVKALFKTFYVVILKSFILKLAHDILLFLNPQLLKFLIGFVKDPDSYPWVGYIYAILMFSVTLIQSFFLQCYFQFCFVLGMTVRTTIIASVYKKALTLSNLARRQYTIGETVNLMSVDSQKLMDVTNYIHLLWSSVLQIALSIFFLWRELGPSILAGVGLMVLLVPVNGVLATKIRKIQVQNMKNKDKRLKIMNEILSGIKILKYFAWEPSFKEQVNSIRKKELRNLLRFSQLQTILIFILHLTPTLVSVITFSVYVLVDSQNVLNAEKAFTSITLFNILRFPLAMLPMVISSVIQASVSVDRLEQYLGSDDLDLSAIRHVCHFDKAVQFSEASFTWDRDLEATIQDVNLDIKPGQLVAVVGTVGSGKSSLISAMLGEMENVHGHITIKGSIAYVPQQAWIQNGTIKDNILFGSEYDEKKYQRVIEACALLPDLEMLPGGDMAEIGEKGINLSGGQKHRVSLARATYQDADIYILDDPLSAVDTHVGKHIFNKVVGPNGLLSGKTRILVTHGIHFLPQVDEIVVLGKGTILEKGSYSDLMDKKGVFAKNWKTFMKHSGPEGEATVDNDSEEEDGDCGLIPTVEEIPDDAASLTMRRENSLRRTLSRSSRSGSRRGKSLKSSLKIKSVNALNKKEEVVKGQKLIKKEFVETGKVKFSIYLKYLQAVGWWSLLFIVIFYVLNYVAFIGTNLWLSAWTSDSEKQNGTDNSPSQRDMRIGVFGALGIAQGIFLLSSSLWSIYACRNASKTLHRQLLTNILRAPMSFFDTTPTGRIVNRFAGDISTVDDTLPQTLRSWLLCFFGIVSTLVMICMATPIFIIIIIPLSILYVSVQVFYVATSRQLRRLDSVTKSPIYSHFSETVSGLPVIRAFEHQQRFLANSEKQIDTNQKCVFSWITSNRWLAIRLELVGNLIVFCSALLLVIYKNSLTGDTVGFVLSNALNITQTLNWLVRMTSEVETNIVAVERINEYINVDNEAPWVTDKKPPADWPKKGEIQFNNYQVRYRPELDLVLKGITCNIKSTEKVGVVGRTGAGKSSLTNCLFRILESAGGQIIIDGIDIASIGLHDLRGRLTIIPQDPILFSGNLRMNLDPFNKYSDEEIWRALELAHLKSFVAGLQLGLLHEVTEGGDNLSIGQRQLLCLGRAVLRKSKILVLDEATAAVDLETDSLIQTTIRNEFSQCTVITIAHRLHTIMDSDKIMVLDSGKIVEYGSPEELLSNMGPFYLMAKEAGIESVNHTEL

| Activity | SMILES |
| --- | --- |
| inducer [] | C#C[C@]1(O)CC[C@H]2[C@@H]3CCC4=CC(=O)CCC4=C3[C@@H](c3ccc(N(C)C)cc3)C[C@]21C |

Molecular target: ATP-binding cassette sub-family C member 3 (Mus musculus, UniProt B2RX12)
Assay: as §1
Format: functional, organism-based

Sequence of ATP-binding cassette sub-family C member 3 (B2RX12 whole entry): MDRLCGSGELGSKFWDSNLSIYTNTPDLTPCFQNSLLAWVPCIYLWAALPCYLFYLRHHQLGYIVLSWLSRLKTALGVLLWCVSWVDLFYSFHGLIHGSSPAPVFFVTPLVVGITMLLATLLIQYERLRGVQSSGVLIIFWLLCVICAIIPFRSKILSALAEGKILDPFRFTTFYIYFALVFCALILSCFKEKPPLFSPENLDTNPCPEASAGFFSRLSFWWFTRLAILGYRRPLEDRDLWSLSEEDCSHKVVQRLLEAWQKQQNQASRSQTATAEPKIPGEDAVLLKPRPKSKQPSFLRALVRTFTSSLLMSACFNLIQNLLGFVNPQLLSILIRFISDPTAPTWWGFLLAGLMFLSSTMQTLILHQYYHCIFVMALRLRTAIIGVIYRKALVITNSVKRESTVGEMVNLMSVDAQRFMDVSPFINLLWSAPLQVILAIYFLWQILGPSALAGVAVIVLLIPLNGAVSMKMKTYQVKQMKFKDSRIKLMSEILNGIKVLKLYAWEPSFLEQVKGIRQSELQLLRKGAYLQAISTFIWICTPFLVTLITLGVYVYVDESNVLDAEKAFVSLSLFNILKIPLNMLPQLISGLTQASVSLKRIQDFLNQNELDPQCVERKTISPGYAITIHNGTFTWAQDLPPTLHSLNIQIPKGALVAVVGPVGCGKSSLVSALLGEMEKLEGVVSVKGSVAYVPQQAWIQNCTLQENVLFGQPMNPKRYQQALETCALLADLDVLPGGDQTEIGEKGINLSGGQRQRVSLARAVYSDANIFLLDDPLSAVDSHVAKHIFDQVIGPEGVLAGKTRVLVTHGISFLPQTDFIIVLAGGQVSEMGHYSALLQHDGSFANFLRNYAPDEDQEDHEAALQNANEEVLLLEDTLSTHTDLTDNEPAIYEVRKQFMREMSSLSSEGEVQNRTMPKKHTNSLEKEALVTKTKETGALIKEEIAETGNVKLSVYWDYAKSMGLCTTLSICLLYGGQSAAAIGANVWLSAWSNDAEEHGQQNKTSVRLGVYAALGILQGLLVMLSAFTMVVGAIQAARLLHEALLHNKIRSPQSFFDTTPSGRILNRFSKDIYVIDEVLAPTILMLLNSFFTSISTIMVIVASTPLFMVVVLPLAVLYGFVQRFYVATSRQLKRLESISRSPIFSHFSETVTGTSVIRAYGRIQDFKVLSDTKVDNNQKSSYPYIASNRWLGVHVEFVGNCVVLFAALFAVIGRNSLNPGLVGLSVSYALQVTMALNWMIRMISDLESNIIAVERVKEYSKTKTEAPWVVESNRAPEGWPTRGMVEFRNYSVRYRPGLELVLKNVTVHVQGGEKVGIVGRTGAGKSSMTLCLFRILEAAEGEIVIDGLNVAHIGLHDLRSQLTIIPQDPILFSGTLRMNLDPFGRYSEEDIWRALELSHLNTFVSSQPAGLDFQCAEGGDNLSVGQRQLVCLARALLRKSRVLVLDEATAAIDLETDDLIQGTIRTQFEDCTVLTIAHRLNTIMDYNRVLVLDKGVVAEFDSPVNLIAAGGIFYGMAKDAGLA

| Activity | SMILES |
| --- | --- |
| inducer [] | C#C[C@]1(O)CC[C@H]2[C@@H]3CCC4=CC(=O)CCC4=C3[C@@H](c3ccc(N(C)C)cc3)C[C@]21C |
| inducer [] | Clc1ccccc1C(c1ccccc1)(c1ccccc1)n1ccnc1 [CLOTRIMAZOLE] |
| inducer [] | CC(C)(C(=O)c1cccnc1)c1cccnc1 [METYRAPONE] |
| inducer [] | CO[C@H]1/C=C/O[C@@]2(C)Oc3c(C)c(O)c4c(O)c(c(/C=N/N5CCN(C)CC5)c(O)c4c3C2=O)NC(=O)/C(C)=C\C=C\[C@H](C)[C@H](O)[C@@H](C)[C@@H](O)[C@@H](C)[C@H](OC(C)=O)[C@@H]1C [RIFAMPIN] |

| SMILES | Activity |
| --- | --- |
| C[C@H](CCC(=O)O)[C@H]1CC[C@H]2[C@@H]3CC[C@@H]4C[C@H](O)CC[C@]4(C)[C@H]3CC[C@]12C [LITHOCHOLIC ACID] | inducer [] |
| COC(=O)C1=C(C)NC(C)=C(C(=O)OC)C1c1ccccc1[N+](=O)[O-] [NIFEDIPINE] | inducer [] |
| CC(=O)[C@H]1[C@H](C#N)C[C@H]2[C@@H]3CC=C4C[C@@H](O)CC[C@]4(C)[C@H]3CC[C@@]21C [PREGNENOLONE CARBONITRILE] | inducer [] |
